The results in this text go back to patent publication US6521644B1, “Compositions for promoting growth” (Ferring BV, priority 1999, dated 2003).

Each structure is given as a SMILES string.

For the assay, the system named is GH surge induced by GHRH. Put plainly: Effect on circulating growth hormone: GH surge induced by i.v. GHRH in rats, plasma GH by RIA. It is filed as in vivo, male Sprague-Dawley rats. The method, then: Experiments were conducted in male Sprague-Dawley rats (200-220 g) obtained from lffa Credo (L'Arbresle, France), fed with standard laboratory chow ad libitum and kept on a 12 h light-dark in a temperature- and humidity-controlled room.
Rats were weighed and anesthetized with Narcorene. The ventral side of the throat was shaved and an incision was made down the center of the throat. The right jugular vein was exposed and cannulated using a polythene tubing (OD 1.0 mm) connected to a medical grade silicone tubing (OD 0.94 mm) (silicone side in the jugular vein). The tubing was secured and the polythene side was externalized through an incision made on the dorsal side of the neck. The catheter was rinsed with 300 μL of a Ringer solution containing 0.1% heparin. Rats were allowed to recover for at least 24 hours in individual cages with food and water available ad libitum.
The compound of Example 1B (3 mg/kg, i.v.) or its vehicle was injected 15 minutes before an injection of GHRH (0.1 μg/kg, i.v.). Blood samples (200-250 μL) were removed immediately before inhibitor and GHRH injections, and then 5, 10, 15, 20, 30 and 60 min post-GHRH. Each blood sample was replaced with an equivalent volume of a Ringer solution containing 0.1% heparin. Plasma was extracted and stored at −20° C. until determinations of GH by RIA.

As for `CC(C)(C)[C@H](N)C(=O)N1CCC[C@H]1C#N` [Example 1B, (2S)-N-((2′S)-2′-amino-3′,3′-dimethylbutanoyl)pyrrolidine-2-carbonitrile], the “Effect on the GH surge induced by the administration of GHRH” value (3 mg/kg i.v. 15 min before GHRH 0.1 μg/kg i.v., rats) is “potentiated the GH surge”. Also, the “mean GH, Time 5 min” value (5 min post-GHRH 0.1 μg/kg i.v., inhibitor 3 mg/kg i.v. 15 min before GHRH, mean of 6 rats ± s.e.m.) was 483.0 ± 91.0 ng/mL. The “mean GH, Time 10 min” value (10 min post-GHRH 0.1 μg/kg i.v., inhibitor 3 mg/kg i.v. 15 min before GHRH, mean of 6 rats ± s.e.m.) is 309.5 ± 55.40 ng/mL. Also, the “mean GH, Time 0 min” value (15 min after inhibitor 3 mg/kg i.v., immediately before GHRH 0.1 μg/kg i.v., mean of 6 rats ± s.e.m.) is 33.4 ± 6.9 ng/mL. Also, the “mean GH, Time 15 min” value (15 min post-GHRH 0.1 μg/kg i.v., inhibitor 3 mg/kg i.v. 15 min before GHRH, mean of 6 rats ± s.e.m.) turned out to be 164.3 ± 28.3 ng/mL. Moreover, the “mean GH, Time 20 min” value (20 min post-GHRH 0.1 μg/kg i.v., inhibitor 3 mg/kg i.v. 15 min before GHRH, mean of 6 rats ± s.e.m.) is 103.1 ± 18.1 ng/mL. The “mean GH, Time 30 min” value (30 min post-GHRH 0.1 μg/kg i.v., inhibitor 3 mg/kg i.v. 15 min before GHRH, mean of 6 rats ± s.e.m.) amounted to 52.1 ± 7.7 ng/mL. In addition, for the setting “60 min post-GHRH 0.1 μg/kg i.v., inhibitor 3 mg/kg i.v. 15 min before GHRH, mean of 6 rats ± s.e.m.”, the “mean GH, Time 60 min” value was 26.3 ± 3.3 ng/mL. In addition, the GH AUC (AUC column of Table 1, inhibitor 3 mg/kg i.v. 15 min before GHRH 0.1 μg/kg i.v., 6 rats, ± s.e.m.) stood at 5070 ± 837 ng·min/mL. The “Integrated GH response” value (inhibitor-treated group, 3 mg/kg i.v. 15 min before GHRH 0.1 μg/kg i.v., p<0.05 vs vehicle (720.2±217.0)) is 5072.8±837.3 ng/ml.60 min. For the setting “plasma GH immediately before inhibitor injection (3 mg/kg i.v.), mean of 6 rats ± s.e.m.”, the “mean GH, Time -15 min” value came to 50.5 ± 16.4 ng/mL.
